The results in this text go back to PubChem BioAssay (NCI).

“And” between values parts separate entries of the source, which are not always exact repeats. Equal entries are not always repeated.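 Following 48 hours of exposure in 96-well plates, responses at five concentrations were used to interpolate endpoints linearly. At the GI50, growth is halved. At the TGI there is no net growth.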 Some results are limits rather than exact numbers.

Test systems include CAKI-1 renal; NCI-H23 lung; LOX IMVI melanoma; SF-539 CNS; SK-MEL-28 melanoma; SW-620 colon; UO-31 renal; SK-MEL-2 melanoma; HL-60(TB) leukemia; MOLT-4 leukemia; EKVX NSCLC.
Holding throughout (test): NCI anticancer screen, dose series, 48 h

On to `CCCCC(CC)C(=O)Oc1ccc(C(=O)c2ccccc2)c(O)c1` (stereo unspecified), for which the TGI in the assay on CAKI-1 renal, in the assay with NCI-H23 lung, in the assay with LOX IMVI melanoma, with SF-539 CNS, in the assay with SK-MEL-28 melanoma and with SW-620 colon was over 100 µM throughout. Further, the TGI in the assay with UO-31 renal, with SK-MEL-2 melanoma, with HL-60(TB) leukemia, in the assay with MOLT-4 leukemia and in the assay with EKVX NSCLC was over 100 µM throughout.
Consider `C[C@@]12CC[C@@H](O)C[C@@H]1CC[C@H]1[C@H]2CC[C@@]2(C)[C@H](c3ccc(=O)oc3)CC[C@@]12O`, for which the GI50 in the assay on CAKI-1 renal was under 0.01 µM; with NCI-H23 lung, under 0.01 µM; in the assay with LOX IMVI melanoma it was under 0.01 µM; in the assay on SF-539 CNS, under 0.01 µM; in the assay on SK-MEL-28 melanoma it was under 0.0141 µM; in the assay with SW-620 colon, under 0.01 µM. For the same compound, the GI50 in the assay on UO-31 renal, in the assay on SK-MEL-2 melanoma and with EKVX NSCLC was under 0.01 µM throughout. The TGI with CAKI-1 renal came to 0.0148 µM; with NCI-H23 lung, 0.0226 µM; with LOX IMVI melanoma, 0.0169 µM; in the assay on SF-539 CNS it was 0.0137 µM; in the assay with SK-MEL-28 melanoma, 0.119 µM; in the assay on SW-620 colon, 0.018 µM. The TGI in the assay on UO-31 renal came out at 0.0147 µM; with SK-MEL-2 melanoma it was 0.0299 µM; in the assay on EKVX NSCLC it was 0.0104 µM.
Regarding `CCOC(=O)c1sc2nc(SC)nc3c2c1NC(=O)CN3c1ccc(F)cc1`, the TGI in the assay on CAKI-1 renal was over 100 µM; in the assay on NCI-H23 lung it was over 100 µM; in the assay on LOX IMVI melanoma it was over 100 µM; with SF-539 CNS it was 33.3 µM; in the assay on SK-MEL-28 melanoma it was 82.6 µM; with SW-620 colon it was over 100 µM. The TGI with UO-31 renal was 46.9 µM; with SK-MEL-2 melanoma, over 100 µM; in the assay with HL-60(TB) leukemia, over 100 µM; with MOLT-4 leukemia, over 100 µM; with EKVX NSCLC, over 100 µM.
For the compound `CCCCCCCCCCCCCCCCCCN(C)CC(COC)OP(=O)([O-])OCC[N+](C)(C)C` (stereo unspecified), the TGI worked out at 5.27 µM with CAKI-1 renal; 11.7 µM in the assay on NCI-H23 lung; 20.2 µM in the assay with LOX IMVI melanoma; 13 µM with SF-539 CNS; 31.2 µM in the assay with SK-MEL-28 melanoma; 15.6 µM in the assay with SW-620 colon. For the same compound, the TGI was found to be 20.2 µM in the assay with UO-31 renal; 30.2 µM in the assay on SK-MEL-2 melanoma; 8.53 µM in the assay with HL-60(TB) leukemia; 11 µM with MOLT-4 leukemia; 28.1 µM in the assay on EKVX NSCLC.
With `O=C1c2cc3c(cc2[C@@H]2C(O)[C@H]4O[C@H]4C4CCN1C42)OCO3` (stereo partly specified), the TGI in the assay on CAKI-1 renal, in the assay with LOX IMVI melanoma, in the assay with SF-539 CNS, in the assay on SK-MEL-28 melanoma, with SW-620 colon and in the assay with UO-31 renal was over 37.5 µM in each case. Also, the TGI in the assay with SK-MEL-2 melanoma, with HL-60(TB) leukemia, in the assay on MOLT-4 leukemia and in the assay with EKVX NSCLC was over 37.5 µM in each case.
As for `Cc1ccc(C(=O)NC2C(=O)NC(C(C)C)C(=O)N3CCCC3C(=O)N(C)CC(=O)N(C)C(C(C)C)C(=O)OC2C)c2c1Oc1c(c(C(=O)NC3C(=O)NC(C(C)C)C(=O)N4CCCC4C(=O)N(C)CC(=O)N(C)C(C(C)C)C(=O)OC3C)c3nc(-c4ccccc4)c(=O)oc3c1C)N2` (stereo unspecified), the TGI in the assay with CAKI-1 renal is over 100 µM; in the assay on NCI-H23 lung, 0.0919 µM; in the assay on SF-539 CNS, 0.00264 µM; with SK-MEL-28 melanoma it was 0.0139 µM; in the assay on SW-620 colon it was 12 µM; in the assay on UO-31 renal it was 0.194 µM and 0.122 µM. Besides, the TGI in the assay on SK-MEL-2 melanoma was 0.00278 µM; in the assay with HL-60(TB) leukemia it was 0.557 µM; in the assay with MOLT-4 leukemia it was 0.0314 µM; in the assay with EKVX NSCLC it was 0.0944 µM and 0.0316 µM.
Take `c1ccc(-c2cc3nc4ccccc4nc3cc(-c3ccccc3)[nH][nH]2)cc1`: the TGI in the assay on CAKI-1 renal, in the assay with NCI-H23 lung, in the assay with LOX IMVI melanoma, in the assay with SF-539 CNS, in the assay on SK-MEL-28 melanoma and in the assay with SW-620 colon was over 100 µM throughout. Also, the TGI in the assay on UO-31 renal is over 100 µM; in the assay on SK-MEL-2 melanoma it was over 100 µM; in the assay on HL-60(TB) leukemia, 53.5 µM; in the assay with MOLT-4 leukemia it was over 100 µM; in the assay with EKVX NSCLC, over 100 µM.
As for `Nc1[nH]c(=O)nc2c1cnn2COCCO`, the TGI with CAKI-1 renal is over 100 µM; in the assay with NCI-H23 lung it was 53.2 µM; with LOX IMVI melanoma, over 100 µM; in the assay on SF-539 CNS, over 100 µM; in the assay with SK-MEL-28 melanoma, over 100 µM; in the assay on SW-620 colon, over 100 µM. The TGI in the assay with UO-31 renal, with SK-MEL-2 melanoma, in the assay with HL-60(TB) leukemia, in the assay with MOLT-4 leukemia and in the assay with EKVX NSCLC was over 100 µM in each case.
Consider `C/C=C\C1OC1(C)c1cc(=O)c2c(C)cc3c(c2o1)C(=O)c1c(O)c(C2CC(C)(N(C)C)C(OC(C)=O)C(C)O2)cc(C2CC(N(C)C)C(O)C(C)O2)c1C3=O` (stereo unspecified), for which the TGI in the assay on CAKI-1 renal came to 0.0431 µM; in the assay on NCI-H23 lung it was 0.00871 µM; in the assay with LOX IMVI melanoma, 0.00485 µM; in the assay with SF-539 CNS, 0.0121 µM; in the assay with SW-620 colon, 0.0369 µM; with UO-31 renal, 0.0106 µM. Further, the TGI in the assay with SK-MEL-2 melanoma worked out at 0.00657 µM; in the assay on MOLT-4 leukemia, 0.049 µM; in the assay with EKVX NSCLC, 0.0224 µM.
On to `CC1CC(C)(O)C2C3(C)CCCC2(COC3=O)C12CCC1(CCOC1=O)O2` (stereo unspecified), for which the TGI with CAKI-1 renal, with NCI-H23 lung, in the assay with LOX IMVI melanoma, in the assay on SF-539 CNS, with SK-MEL-28 melanoma and in the assay on SW-620 colon was over 250 µM throughout. Moreover, the TGI with UO-31 renal, in the assay with SK-MEL-2 melanoma, in the assay with HL-60(TB) leukemia, in the assay with MOLT-4 leukemia and in the assay on EKVX NSCLC was over 250 µM each time.
For `COc1cc2cc(C(=O)N3CC(CCl)c4ccc(NO)cc43)[nH]c2c(OC)c1OC` (stereo unspecified), the TGI is 3.44 µM in the assay on CAKI-1 renal; 0.166 µM in the assay with NCI-H23 lung; 2.56 µM with LOX IMVI melanoma; 1.99 µM in the assay on SF-539 CNS; 3.22 µM in the assay with SK-MEL-28 melanoma; over 100 µM with SW-620 colon. Moreover, the TGI in the assay with UO-31 renal was determined as 0.392 µM; with SK-MEL-2 melanoma, 0.325 µM; with HL-60(TB) leukemia, 0.403 µM; in the assay with MOLT-4 leukemia it was 0.61 µM; with EKVX NSCLC, 2.15 µM.
In the case of `CCOC(=O)C(C(=O)OCC)c1cc(-c2cc3ccccc3o2)oc(=O)c1C#N`, the TGI in the assay on CAKI-1 renal came to 38.1 µM; with NCI-H23 lung it was 36.7 µM; in the assay on LOX IMVI melanoma, 31.8 µM; in the assay with SF-539 CNS, 36.8 µM; with SK-MEL-28 melanoma it was 63.3 µM; with SW-620 colon, 52.6 µM. Besides, the TGI was 90.3 µM with UO-31 renal; 38.2 µM with SK-MEL-2 melanoma; 64.8 µM in the assay with HL-60(TB) leukemia; 87.2 µM in the assay with MOLT-4 leukemia; over 100 µM in the assay on EKVX NSCLC.
As for `CC(C)N(CC(=O)O)CC(=O)O`, the TGI in the assay with CAKI-1 renal, with NCI-H23 lung, in the assay with LOX IMVI melanoma, in the assay on SF-539 CNS, with SK-MEL-28 melanoma and in the assay with SW-620 colon was over 100 µM each time. The TGI in the assay on UO-31 renal, in the assay with SK-MEL-2 melanoma, in the assay with HL-60(TB) leukemia, in the assay with MOLT-4 leukemia and in the assay on EKVX NSCLC was over 100 µM each time.
Consider `O=C(O)C1=C(CO)Oc2cc3c(cc2C1c1ccc2c(c1)OCO2)OCO3` (stereo unspecified), for which the TGI with CAKI-1 renal, in the assay with NCI-H23 lung, in the assay with LOX IMVI melanoma, with SF-539 CNS, in the assay with SK-MEL-28 melanoma and with SW-620 colon was over 100 µM each time. The TGI in the assay with UO-31 renal, with SK-MEL-2 melanoma, in the assay on HL-60(TB) leukemia, with MOLT-4 leukemia and with EKVX NSCLC was over 100 µM each time.
In the case of `O=P1(Oc2ccc(Cl)cc2Cl)Oc2cc3ccccc3cc2O1`, the TGI in the assay on CAKI-1 renal, with NCI-H23 lung, with LOX IMVI melanoma, with SF-539 CNS, in the assay on SK-MEL-28 melanoma and in the assay with SW-620 colon was over 100 µM in each case. Besides, the TGI in the assay on UO-31 renal was over 100 µM; with SK-MEL-2 melanoma it was over 100 µM; in the assay on HL-60(TB) leukemia it was 50.8 µM; in the assay on MOLT-4 leukemia, over 71.4 µM; in the assay with EKVX NSCLC, over 100 µM.
In the case of `C=C(C)[C@@H]1CC[C@]2(C(=O)O)CC[C@]3(C)[C@H](CC[C@@H]4[C@@]5(C)C/C(=C/c6ccco6)C(=O)C(C)(C)[C@@H]5CC[C@]43C)[C@@H]12`, the GI50 was 3.5 µM with CAKI-1 renal, 2.52 µM in the assay with SW-620 colon, 2.75 µM in the assay with SK-MEL-2 melanoma and 2.73 µM in the assay with EKVX NSCLC. Also, the TGI with CAKI-1 renal was over 100 µM; in the assay on SW-620 colon, 6.89 µM; in the assay on SK-MEL-2 melanoma, 8.85 µM; in the assay on EKVX NSCLC, over 100 µM.
